Measurements published in ChEMBL document CHEMBL5032490, “Neuroactive Type-A γ-Aminobutyric Acid Receptor Allosteric Modulator Steroids from the Hypobranchial Gland of Marine Mollusk, Conus geographus” (J Med Chem, 2021).
Active and inactive are the calls of the source.

What was measured:
[1] = (§1) Reduction in Kcl-induced cytosolic calcium ion concentration in mouse DRG neurons at 10 microg/ml measured after 1 hr by Fura2AM dye based fluorescence microscopic analysis in response to Kcl; format: functional, Neuron; parameters: scale not given: the % may be the effect or the level left; settings: dose 10 µg/ml
[2] = Induction of cytosolic calcium ion concentration in mouse DRG neurons at 10 microg/ml measured after 1 hr by Fura2AM dye based fluorescence microscopic analysis; format: functional, Neuron; settings: dose 10 µg/ml
[3] = Induction of ATP-induced cytosolic calcium ion concentration in mouse DRG neurons assessed as neuron population at 10 microg/ml measured after 1 hr by Fura2AM dye based fluorescence microscopic; format: functional; settings: dose 10 µg/ml
[4] = Induction of Kcl-induced cytosolic calcium ion concentration in mouse DRG neurons in response to Kcl at 10 microg/ml measured after 1 hr by Fura2AM dye based fluorescence microscopic analysis; format: functional, Neuron; settings: dose 10 µg/ml
[5] = Reduction in ATP-induced cytosolic calcium ion concentration in mouse DRG neurons at 10 microg/ml measured after 1 hr by Fura2AM dye based fluorescence microscopic analysis in response to ATP; format: functional, Neuron; parameters: scale not given: the % may be the effect or the level left; settings: dose 10 µg/ml
[6] = tested on: Neuron; assay: as §1; format: functional; settings: dose 10.0 µg/ml
[7] = Induction of cytosolic calcium ion concentration in mouse DRG other neuron subtype at 10 uM measured after 1 hr by Fura2AM dye based fluorescence microscopic analysis; format: functional
[8] = Induction of ATP and Kcl-induced increase in cytosolic Ca2+ ion concentration mouse […] assessed as neuron population at 10 uM measured after 1 hr by Fura2AM dye based fluorescence microscopic analysis; format: functional
[9] = Induction of cytosolic calcium ion concentration in mouse non-peptidergic nociceptive DRG neuron at 10 uM measured after 1 hr by Fura2AM dye based fluorescence microscopic analysis; format: functional
[10] = Induction of cytosolic calcium ion concentration in mouse microglia cells at 10 uM measured after 1 hr by Fura2AM dye based fluorescence microscopic analysis; format: functional
[11] = Induction of ATP and Kcl-induced increase in cytosolic Ca2+ ion concentration mouse non-peptidergic nociceptive DRG neuron assessed as neuron population at 10 uM measured after 1 hr by Fura2AM dye based fluorescence microscopic analysis; format: functional
[12] = Reduction of ATP and Kcl-induced increase in cytosolic Ca2+ ion concentration mouse […] assessed as neuron population at 10 uM measured after 1 hr by Fura2AM dye based fluorescence microscopic analysis; format: functional; parameters: scale not given: the % may be the effect or the level left
[13] = Reduction of ATP and Kcl-induced increase in cytosolic Ca2+ ion concentration mouse DRG other neuron subtype assessed as neuron population at 10 uM measured after 1 hr by Fura2AM dye based fluorescence microscopic analysis; format: functional; parameters: scale not given: the % may be the effect or the level left
[14] = Induction of cytosolic calcium ion concentration in mouse peptidergic nociceptive DRG neuron at 10 uM measured after 1 hr by Fura2AM dye based fluorescence microscopic analysis; format: functional
[15] = Induction of ATP and Kcl-induced increase in cytosolic Ca2+ ion concentration mouse DRG other neuron subtype assessed as neuron population at 10 uM measured after 1 hr by Fura2AM dye based fluorescence microscopic analysis; format: functional
[16] = Induction of ATP and Kcl-induced increase in cytosolic Ca2+ ion concentration mouse peptidergic nociceptive DRG neuron assessed as neuron population at 10 uM measured after 1 hr by Fura2AM dye based fluorescence microscopic analysis; format: functional
[17] = Reduction of ATP and Kcl-induced increase in cytosolic Ca2+ ion concentration mouse peptidergic nociceptive DRG neuron assessed as neuron population at 10 uM measured after 1 hr by Fura2AM dye based fluorescence microscopic analysis; format: functional; parameters: scale not given: the % may be the effect or the level left
[18] = Reduction of ATP and Kcl-induced increase in cytosolic Ca2+ ion concentration mouse non-peptidergic nociceptive DRG neuron assessed as neuron population at 10 uM measured after 1 hr by Fura2AM dye based fluorescence microscopic analysis; format: functional; parameters: scale not given: the % may be the effect or the level left
[19] = tested on: Neuron; assay: Effect on mouse GABA receptor expressed in mouse non-peptidergic nociceptive DRG neurons at 10 uM; format: tissue-based
[20] = tested on: Neuron; assay: Effect on mouse GABA receptor expressed in mouse C-low-threshold mechanoreceptors DRG neurons at 10 uM; format: tissue-based
[21] = tested on: Neuron; assay: Effect on mouse GABA receptor expressed in mouse peptidergic nociceptive DRG neurons at 10 uM; format: tissue-based
[22] = tested on: Neuron; assay: Effect on mouse GABA receptor expressed in mouse DRG neurons at 10 uM using cold thermosensors; format: tissue-based

SMILES | Activity [1] [%] | Activity [2] [%] | Activity [3] [%] | Activity [4] [%] | Activity [5] [%] | Activity [19] | Activity [20] | Activity [21] | Activity [22] | other results
C[C@H](CCC(=O)C(C)(C)O)[C@H]1CC[C@H]2[C@@H]3C(=O)C=C4C=CCC[C@]4(C)[C@H]3CC[C@]12C | 2 | 35 | 9 | 22 | 17 |  |  |  |  | 
C[C@H](CC[C@@H](O)C(C)(C)O)[C@H]1CC[C@H]2[C@@H]3C(=O)C=C4C[C@H](O)CC[C@]4(C)[C@H]3CC[C@]12C |  | 19 | 33 | 54 | 3 |  |  |  |  | Activity [6]: inactive
C[C@H](CC[C@H](O)C(C)(C)O)[C@H]1CC[C@H]2[C@@H]3C(=O)C=C4C[C@@H](O)CC[C@]4(C)[C@H]3CC[C@]12C | 49 | 58 | 21 | 6 | 15 |  |  |  |  | Activity [7]: 2%; Activity [8]: 3%; Activity [9]: 15%; Activity [10]: 4%; Activity [11]: 26%; Activity [12]: 24%; Activity [13]: 3%; Activity [14]: 37%; Activity [15]: 5%; Activity [16]: 45%; Activity [17]: 4%; Activity [18]: 7%
CC(C)[C@@H](C)/C=C/[C@@H](C)[C@H]1CC[C@H]2C3=CC=C4C[C@@H](O)CC[C@]4(C)[C@H]3CC[C@]12C |  |  |  |  |  | inactive | inactive | inactive | inactive | 
C[C@H](CCC(=O)O)[C@H]1CC[C@H]2[C@@H]3[C@H](O)C[C@@H]4C[C@H](O)CC[C@]4(C)[C@H]3C[C@H](O)[C@]12C |  |  |  |  |  | inactive | inactive | inactive | inactive | 
CC(C)CCC[C@@H](C)[C@H]1CC[C@H]2[C@@H]3CC=C4C[C@@H](O)CC[C@]4(C)[C@H]3CC[C@]12C |  |  |  |  |  | inactive | inactive | inactive | inactive | 
CC(C)C(=O)CC[C@@H](C)[C@H]1CC[C@H]2[C@@H]3C(=O)C=C4C=CCC[C@]4(C)[C@H]3CC[C@]12C | 1 | 6 | 11 | 19 | 13 |  |  |  |  | 
C[C@H](CC[C@@H](O)C(C)(C)O)[C@H]1CC[C@H]2[C@@H]3C(=O)C=C4C=CCC[C@]4(C)[C@H]3CC[C@]12C | 4 | 3 | 36 | 38 | 3 |  |  |  |  | 
